# How the values were obtained:
# [1] = target: Sigma non-opioid intracellular receptor 1 (Cavia porcellus, UniProt Q60492); assay: Displacement of [3H](+)-pentazocine from sigma 1 receptor in guinea pig brain homogenates after 90 mins by scintillation counting; assay type: tissue-based
# [2] = Displacement of [3H]DTG from sigma 2 receptor in rat liver homogenates in presence of sigma-1 receptor blocker (+)-pentazocine after 120 mins by liquid scintillation counting; assay type: tissue-based
# [3] = Selectivity ratio of Ki for sigma 2 receptor in rat liver to Ki for sigma 1 receptor in guinea pig brain
# [4] = Selectivity ratio of Ki for sigma 1 receptor in guinea pig brain to Ki for sigma 2 receptor in rat liver
# Sigma non-opioid intracellular receptor 1, sequence (Q60492 whole entry): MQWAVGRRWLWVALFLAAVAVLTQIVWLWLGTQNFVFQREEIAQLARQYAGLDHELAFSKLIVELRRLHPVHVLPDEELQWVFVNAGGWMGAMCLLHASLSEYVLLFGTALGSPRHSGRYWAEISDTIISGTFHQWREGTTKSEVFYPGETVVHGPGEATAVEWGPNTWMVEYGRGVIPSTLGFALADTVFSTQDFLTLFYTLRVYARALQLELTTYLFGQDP
Compound,Ki [1],Ki [2],Ratio Ki [3],Ratio Ki [4]
Fc1ccc(CCN2C3CC4CC(C3)CC2C4)cc1,12.8 nM,34 nM,2.7,–
OC12CC3CC(CC(C3)N1CCc1cccc(F)c1)C2 (racemic),234 nM,250 nM,1.1,–
COc1cccc(CN2C3CC4CC(C3)CC2(O)C4)c1 (racemic),1950 nM,353 nM,–,5.5
OC12CC3CC(CC(C3)N1Cc1ccc(F)cc1)C2 (racemic),650 nM,826 nM,1.3,–
Fc1ccc(CN2C3CC4CC(C3)CC2C4)cc1,12 nM,90 nM,7.5,–
COc1ccc(CN2C3CC4CC(C3)CC2C4)cc1,12.4 nM,54 nM,4.4,–
COc1cccc(CN2C3CC4CC(C3)CC2C4)c1,239 nM,64 nM,–,3.7
Fc1cccc(CCN2C3CC4CC(C3)CC2C4)c1,8.3 nM,40 nM,4.8,–
COc1ccc(CN2C3CC4CC(C3)CC2(O)C4)cc1 (racemic),1240 nM,426 nM,–,2.9
OC12CC3CC(CC(C3)N1CCc1ccc(F)cc1)C2 (racemic),246 nM,201 nM,–,1.2

# Source: ChEMBL document CHEMBL1821607, “N-Arylalkyl-2-azaadamantanes as cage-expanded polycarbocyclic sigma (σ) receptor ligands” (Bioorg Med Chem Lett, 2011)
